Test results as given in BindingDB's records for doi:10.1007/bf00165806 (UniversitÄT Heidelberg, 1987).

Columns and labels:
[1] = target: Adenosine receptor A2a (Homo sapiens, UniProt P29274)
[2] = target: T1, Adenosine receptor A1 (Bos taurus, UniProt P28190)
T1 sequence (P28190 whole entry): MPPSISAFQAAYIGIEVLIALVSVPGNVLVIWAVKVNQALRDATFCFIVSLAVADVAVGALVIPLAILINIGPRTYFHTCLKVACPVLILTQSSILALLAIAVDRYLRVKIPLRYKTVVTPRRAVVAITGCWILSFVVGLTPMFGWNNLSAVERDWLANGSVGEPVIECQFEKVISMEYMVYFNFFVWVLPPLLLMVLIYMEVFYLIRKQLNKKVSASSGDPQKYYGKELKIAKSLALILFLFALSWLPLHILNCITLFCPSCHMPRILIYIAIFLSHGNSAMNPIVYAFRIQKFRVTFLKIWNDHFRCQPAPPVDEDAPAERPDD

Adenosine receptor A2a, sequence (P29274 whole entry): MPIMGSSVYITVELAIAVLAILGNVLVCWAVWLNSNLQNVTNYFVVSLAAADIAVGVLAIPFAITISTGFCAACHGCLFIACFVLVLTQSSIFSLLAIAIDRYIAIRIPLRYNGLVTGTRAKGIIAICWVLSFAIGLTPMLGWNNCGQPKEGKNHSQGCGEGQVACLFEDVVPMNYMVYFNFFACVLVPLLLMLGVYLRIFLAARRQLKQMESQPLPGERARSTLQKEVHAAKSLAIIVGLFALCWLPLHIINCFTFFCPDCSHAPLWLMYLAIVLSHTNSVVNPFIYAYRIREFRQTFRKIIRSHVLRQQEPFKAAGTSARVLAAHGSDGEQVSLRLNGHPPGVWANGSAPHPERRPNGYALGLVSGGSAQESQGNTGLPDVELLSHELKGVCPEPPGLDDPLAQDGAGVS

| SMILES | Ki [1] | Ki [2] |
| --- | --- | --- |
| CCn1c(=O)c2[nH]c(-c3ccccc3)nc2n(CC)c1=O [1,3-Diethyl-8-phenyl-3,7-dihydro-purine-2,6-dione] | 210 nM |  |
| CCCn1c(=O)c2[nH]c(C3CCCC3)nc2n(CCC)c1=O [DPCPX] |  | 0.07 nM |
| CCCn1c(=O)c2[nH]c(-c3ccc(OCC(=O)NCCN)cc3)nc2n(CCC)c1=O [N-(2-Amino-ethyl)-2-[4-(2,6-dioxo-1,3-dipropyl-2,3,6,9-tetrahydro-1H-purin-8-yl)-phenoxy]-acetamide] |  | 0.08 nM |
